Experimental data reported in patent US20190255056A1, “A HCK INHIBITOR AND A BCL-2 INHIBITOR FOR TREATING ACUTE MYELOID LEUKEMIA” (RIKEN, priority 2016, published 2019).

How the values were obtained:
[1] = test system: residual viable human CD45+AML cells (leukemia-initiating capacity); experiment: Secondary (serial) transplantation of residual human AML cells after in vivo treatment; parameters: species or system NSG mice; conditions: 2.5% of residual viable human CD45+ cells transplanted per secondary recipient; single-agent groups
Description: (§1) In vivo treatment experiments were performed with AML-engrafted NSG recipients using RK-20449 (Ref. STM 2013) and ABT-199 (Souers A J et al., Nature Medicine 2013, Pan R et al., Cancer Discovery 2014). The recipients were administered RK-20449 intraperitoneally 30 mg/kg twice a day, ABT-199 orally 70 mg/kg once a day or both RK-20449 and ABT-199 at these dosing schedules. The mice were sacrificed when they became moribund or after 4˜6 weeks of treatment, and human AML chimerisms in BM, spleen and PB were determined using flow cytometry. In secondary transplantation, each mouse received 7-AAD(-) viable human CD45+cells from 2.5% of total BM that remained in AML-engrafted recipients at the time of sacrifice, to simulate relapse occurring from residual viable AML cells.
Leukemia-initiating capacity remaining after treatment was compared by isolating residual viable human CD45+AML cells from each treated mouse and transplanting a pre-determined fraction into secondary NSG recipients.

human FLT3−ITD+AML cells = experiment: In vivo treatment of AML-engrafted NSG recipients (PDX model); parameters: species or system NSG mice
Description: NSG newborns received 1.5Gy total body irradiation followed by intravenous injection of purified human cells. Donor cells were purified according to their cell surface phenotype using monoclonal antibodies against human CD34, CD38, CD90, CD45RA, CD3, CD19 and CD33. Engraftment levels of human cells in the NSG recipients were assessed by retro-orbital phlebotomy and flow cytometry.
as §1
These studies examined whether inhibition of a mutated kinase alone eliminates AML in vivo using a NSG PDX model. Patient-derived cells with a FLT3−ITD mutation engraft in vivo and initiate AML, but the individual FLT3−ITD+cells harbor multiple other mutations in various combinations. These mutations may contribute to therapy responsiveness in cooperation with FLT3−ITD, and a PDX model that reflects mutational complexity of human AML cells is necessary to examine the contribution of multiple co-existing mutations. Therefore, the frequency of AML-associated somatic mutations was evaluated in the disclosed PDX model using newborn NSG xenotransplantation, and the same sets of mutations were present in patient-derived leukemia-initiating population and engrafted AML cells in recipients (see, FIG. 4). […] The extent that targeting FLT3 pathway alone can result in reduction of human AML cells harboring multiple mutations in vivo was examined as follows. RK-20449 is a pyrrolo-pyrimidine-derivative multi-kinase inhibitor of Src family kinase HCK and FLT3 that effectively target human AML cells. Therefore, RK-20449 was administered to 58 NSG mice engrafted with AML from 19 FLT3−ITD+AML patients and the results are shown in FIG. 8.

| Structure (SMILES) | AML initiation in secondary recipients from treated BM [1] | response to ABT-199 alone (human FLT3−ITD+AML cells; ABT-199 orally 70 mg/kg once a day, majority of cases) | residual BM human CD45+chimerism (human FLT3−ITD+AML cells; RK-20449 alone 30 mg/kg i.p. twice a day, five patients with complete responses, every recipient treated) | response in the spleen (human FLT3−ITD+AML cells; RK-20449 alone, 11 additional cases) | response of FLT3−ITD+human AML cells to single agent in vivo (human FLT3−ITD+AML cells; all 19 cases tested) | remaining AML cells in BM, spleen and PB (human FLT3−ITD+AML cells; flow cytometry and immunohistochemistry, complete-responder patients, all recipients treated) | BCL-2 dependence for leukemia cell survival (human FLT3−ITD+AML cells; in vivo kinase inhibition) | cases with residual AML cells in the BM of at least one treated mouse (human FLT3−ITD+AML cells; single agent RK-20449) |
| --- | --- | --- | --- | --- | --- | --- | --- | --- |
| CC1(C)CCC(CN2CCN(c3ccc(C(=O)NS(=O)(=O)c4ccc(NCC5CCOCC5)c([N+](=O)[O-])c4)c(Oc4cnc5[nH]ccc5c4)c3)CC2)=C(c2ccc(Cl)cc2)C1 [ABT-199, reference compound] | every secondary recipient | limited responses |  |  |  |  |  |  |
| CN1CCN([C@H]2CC[C@H](n3cc(-c4ccc(Oc5ccccc5)cc4)c4c(N)ncnc43)CC2)CC1 [RK-20449, 7-((1R,4R)-4-(4-methylpiperazin-l-yl)cyclohexyl)-5-(4-phenoxyphenyl)-7H-pyrrolo[2,3-d]pyrimidin-4-amine] | every secondary recipient |  | < 5% | complete responses in the spleen in a majority of recipients tested | significant responses | less than 0.01% | enhanced | 14 of 19 |
